How the values were obtained:
Assay type in all cases: cell-based
glucocorticoid receptor [1] = experiment: cDNA microarray, TGFβ1-induced down-regulation of glucocorticoid receptor in rat lung fibroblasts (RLF); settings: 15 ng/ml TGFβ1, 24 hours
Method: Rat lung fibroblasts (RLF) were isolated from perfused rat lung by physical and enzymatic dissociation of lung tissue. […] RLFs were cultured in FGM-2 with 2% FBS (Clonetics # CC-3132). Cells were serum starved for 24 hours, followed by the treatment with 15 ng/ml TGFβ1 (R&D System) or co-treatment with 1 μM Compound No. 81 or 0.1 μM Compound No. 74 for 24 hours.
(§1) Gene expression profiles were determined from cDNA microarrays containing approximately 9000 elements derived from clones isolated from normalized cDNA libraries or purchased from ResGen (Invitrogen Life Technologies, Carlsbad, Calif.). […]
(§2) Total RNA was extracted from cells using Qiagen's RNeasy kit. […] Hybridization of each fluorophore was quantified using an Axon GenePix 4000A scanner.
(§3) Differential expression values were expressed as the ratio of the median of background-subtracted fluorescent intensity of the experimental RNA to the median of background-subtracted fluorescent intensity of the control RNA. For ratios greater than or equal to 1.0, the ratio was expressed as a positive value. For ratios less than 1.0, the ratio was expressed as the negative reciprocal (i.e., a ratio of 0.5=−2.0). […] Differential expression ratios were determined as the mean of the two values from dye-swapped duplicates. […]

glucocorticoid receptor [2] = experiment: cDNA microarray, TGFβ1-induced down-regulation of glucocorticoid receptor in normal rat kidney cells (NRK); settings: 5 ng/ml huTGF-b1, 24 hours
Method: Normal rat kidney cells (NRK) were cultured in DMEM-21 (high glucose)/10% FCS at 37° C., 5% CO2. Cells were serum starved for 24 hr before treated with 5 ng/ml huTGF-b1 (R&D System) or co-treatment with 1 μM Compound No. 81 or 0.1 μM Compound No. 74 for 24 hours.
Gene expression profiles were determined from cDNA microarrays containing approximately 9000 elements derived from clones isolated from normalized cDNA libraries or purchased from ResGen (Invitrogen Life Technologies, Carlsbad, Calif.). DNA for spotting was generated by PCR amplification using 5′amino-modified primers (BD Biosciences Clontech, Palo Alto, Calif.) derived from flanking vector sequences. […]
as §2, §3

[3] = test system: steroid/thyroid receptors; experiment: cDNA microarray, TGFβ1-induced down-regulation of steroid/thyroid receptors in human lung fibroblasts; settings: 5 ng/ml TGFβ1
Method: Human lung fibroblasts (Cambrex Bio Science) from a person were seeded at 4×10^5 cells (passage 4) in 100 mm dishes and cultured in complete FGM medium (Cambrex Bio Science). The next day, medium was changed to FGM without serum or fibroblast growth factor, but supplemented with 0.2% bovine serum albumin and 50 μg/m; Vitamin C. Cells were serum deprived for 24 hours prior to treating with 5 ng/ml TGFβ1 (R&D Systems) in the presence or absence of 400 nM Compound No. 79. Induction with TGFβ was carried out for various times (7.5 hours, 24 hours, and 3 days) after which RNA was harvested by lysing the cells in RLT buffer (Qiagen) and frozen at −80° C.
as §1, §2
Differential expression values were expressed as the ratio of the median of background-subtracted fluorescent intensity of the experimental RNA to the median of background-subtracted fluorescent intensity of the control RNA. For ratios greater than or equal to 1.0, the ratio was expressed as a positive value. […]

- down-regulation of glucocorticoid receptor expression at the transcriptional level (glucocorticoid receptor [1]): 2 fold
- expression of seven members of the steroid nuclear receptor family, including glucocorticoid receptor and retinoid receptor C alpha [3]: down-regulates
Substance: TGF-β1: huTGF-b1 (R&D System), transforming growth factor-beta 1, used to induce receptor down-regulation
- down-regulation of glucocorticoid receptor expression at the transcriptional level (glucocorticoid receptor [2]): 2 fold

Reference: patent US20040138188A1, “Use of TGF-beta inhibitors to counteract pathologic changes in the level or function of steroid/thyroid receptors” (priority 2002, published 2004)
